One assay deals with T1, EGFR (WT) (Homo sapiens, UniProt P00533).
T1 construct: The EGFR constructs span amino acids R669 to V1011 of the EGFR protein; T7 phage display fusion (kinase-tagged T7 phage) or DNA tag for qPCR; made in house; host or cells: E. coli (BL21-derived) infected with T7 phage for most assays; remaining kinases in HEK-293
The assay is described as follows: In vitro kinase binding assay (phage/DNA-tagged kinase, affinity beads, qPCR), wild-type EGFR. As to the method: (§1) For most assays, kinase-tagged T7 phage strains were prepared in an E. coli host derived from the BL21 strain. For the EGFR assays, wild-type EGFR, or mutant EGFR (T790M, L858R) were utilized. The EGFR constructs span amino acids R669 to V1011 of the EGFR protein. E. coli were grown to log-phase and infected with T7 phage and incubated with shaking at 32° C. until lysis. The lysates were centrifuged and filtered to remove cell debris. The remaining kinases were produced in HEK-293 cells and subsequently tagged with DNA for qPCR detection. Streptavidin-coated magnetic beads were treated with biotinylated small molecule ligands for 30 minutes at room temperature to generate affinity resins for kinase assays. The liganded beads were blocked with excess biotin and washed with blocking buffer (SeaBlock (Pierce), 1% BSA, 0.05% Tween 20, 1 mM DTT) to remove unbound ligand and to reduce non-specific binding. Binding reactions were assembled by combining kinases, liganded affinity beads, and test compounds in 1× binding buffer (20% SeaBlock, 0.17×PBS, 0.05% Tween 20, 6 mM DTT). Test compounds were prepared as 111× stocks in 100% DMSO. Kds were determined using an 11-point 3-fold compound dilution series with three DMSO control points. All compounds for Kd measurements are distributed by acoustic transfer (non-contact dispensing) in 100% DMSO. The compounds were then diluted directly into the assays such that the final concentration of DMSO was 0.9%. All reactions performed in polypropylene 384-well plate. Each was a final volume of 0.02 ml. The assay plates were incubated at room temperature with shaking for 1 hour and the affinity beads were washed with wash buffer (lx PBS, 0.05% Tween 20). The beads were then re-suspended in elution buffer (lx PBS, 0.05% Tween 20, 0.5 μM nonbiotinylated affinity ligand) and incubated at room temperature with shaking for 30 minutes. The kinase concentration in the eluates was measured by qPCR.
For orientation: In qPCR the cycle at which signal appears reflects the starting amount.

The target in a further assay is T2, EGFR (L858R, T790M) (Homo sapiens, UniProt P00533, L858R/T790M).
T2 construct: The EGFR constructs span amino acids R669 to V1011 of the EGFR protein; T7 phage display fusion (kinase-tagged T7 phage) or DNA tag for qPCR; made in house; host or cells: E. coli (BL21-derived) infected with T7 phage for most assays; remaining kinases in HEK-293
The assay is described as follows: In vitro kinase binding assay (phage/DNA-tagged kinase, affinity beads, qPCR), mutant EGFR. The following applies: for Binding Affinity ratio of WT/DM: ratio of Kd EGFR (WT) to Kd EGFR (L858R, T790M). As to the method:
as §1

Setting [1] is: wild-type EGFR construct R669 to V1011, 11-point 3-fold dilution series, 1 hour at room temperature, read-out: EGFR (WT) Kd.
Where [2] appears, read: mutant EGFR (T790M, L858R) construct R669 to V1011, 11-point 3-fold dilution series, 1 hour at room temperature, read-out: EGFR (L858R, T790M) Kd.

One may read the Kd as the concentration at which binding is half-saturated.

The structures appear in SMILES notation. Read-outs that look alike come from different tables or passages of the source.

T1 sequence (P00533 669-1011): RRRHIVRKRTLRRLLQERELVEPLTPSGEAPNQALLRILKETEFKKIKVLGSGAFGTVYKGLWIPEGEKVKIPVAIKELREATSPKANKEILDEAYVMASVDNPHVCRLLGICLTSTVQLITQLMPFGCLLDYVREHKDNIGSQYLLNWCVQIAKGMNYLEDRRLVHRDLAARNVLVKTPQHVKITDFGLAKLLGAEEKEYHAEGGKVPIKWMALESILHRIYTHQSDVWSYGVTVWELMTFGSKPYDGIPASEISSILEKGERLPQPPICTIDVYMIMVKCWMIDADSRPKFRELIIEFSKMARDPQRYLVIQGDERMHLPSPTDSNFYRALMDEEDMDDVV
T2 sequence (P00533 669-1011 T790M/L858R): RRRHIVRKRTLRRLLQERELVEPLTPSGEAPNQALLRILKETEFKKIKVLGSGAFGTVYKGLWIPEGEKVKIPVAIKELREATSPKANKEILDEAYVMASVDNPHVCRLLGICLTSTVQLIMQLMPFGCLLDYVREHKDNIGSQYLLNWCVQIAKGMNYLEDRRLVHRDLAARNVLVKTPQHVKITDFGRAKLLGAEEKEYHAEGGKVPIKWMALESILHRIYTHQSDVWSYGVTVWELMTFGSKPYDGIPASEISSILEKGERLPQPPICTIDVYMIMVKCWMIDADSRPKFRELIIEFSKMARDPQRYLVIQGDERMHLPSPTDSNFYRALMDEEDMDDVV

In the case of `C=CC(=O)N[C@@H]1CN(c2nc(Nc3cn(CCCNC(=O)CN4CCN(CC(=O)O)CCN(CC(=O)O)CCN(CC(=O)O)CC4)nc3OC)c3ncn(C)c3n2)C[C@H]1F` [Compound 001, 2-[4,7-bis(carboxymethyl)-10-[2-[3-[4-[[2-[(3R,4R)-3-fluoro-4-(prop-2-enoylamino)pyrrolidin-1-yl]-9-methyl-purin-6-yl]amino]-3-methoxy-pyrazol-1-yl]propylamino]-2-oxo-ethyl]-1,4,7,10-tetrazacyclododec-1-yl]acetic acid], the Kd on EGFR (WT) (setting [1]) is 2 to 100 nM; on EGFR (L858R, T790M) (setting [2]), less than 1 nM. Moreover, the “Binding Affinity ratio of WT/DM” value at EGFR (L858R, T790M) was “A (4 < A ≤ 25)”.

For `C=CC(=O)N[C@@H]1CN(c2nc(Nc3cn(CCCNC(=O)CN4CCN5CCN6CCN(CC4)CC(=O)[O][Lu]([O]C(=O)C5)[O]C(=O)C6)nc3OC)c3ncn(C)c3n2)C[C@H]1F` [Compound 001-Lu, N-[(3R,4R)-4-fluoro-1-[6-[[3-methoxy-1-[3-[[2-(3,16,19-trioxo-2,17,18-trioxa-5,8,11,14-tetraza-1λ3-lutetatricyclo[9.6.3.25,14]docosan-8-yl)acetyl]amino]propyl]pyrazol-4-yl]amino]-9-methyl-purin-2-yl]pyrrolidin-3-yl]prop-2-enamide], the Kd on EGFR (WT) is 2 to 100 nM. Moreover, on EGFR (L858R, T790M), the Kd was less than 1 nM and the “Binding Affinity ratio of WT/DM” value is listed as “A (4 < A ≤ 25)”.

For the molecule `C=CC(=O)N[C@@H]1CN(c2nc(Nc3cn(CCCCCNC(=O)CN4CCN(CC(=O)O)CCN(CC(=O)O)CCN(CC(=O)O)CC4)nc3OC)c3ncn(C)c3n2)C[C@H]1F` [Compound 002, 2-[4,7-bis(carboxymethyl)-10-[2-[5-[4-[[2-[(3R,4R)-3-fluoro-4-(prop-2-enoylamino)pyrrolidin-1-yl]-9-methyl-purin-6-yl]amino]-3-methoxy-pyrazol-1-yl]pentylamino]-2-oxo-ethyl]-1,4,7,10-tetrazacyclododec-1-yl]acetic acid], the Kd is 2 to 100 nM on EGFR (WT) (setting [1]) and less than 1 nM at EGFR (L858R, T790M) (setting [2]).

Regarding `C=CC(=O)N[C@@H]1CN(c2nc(Nc3cn(CCCCCNC(=O)CN4CCN5CCN6CCN(CC4)CC(=O)[O][Lu]([O]C(=O)C5)[O]C(=O)C6)nc3OC)c3ncn(C)c3n2)C[C@H]1F` [Compound 002-Lu, N-[(3R,4R)-4-fluoro-1-[6-[[3-methoxy-1-[5-[[2-(3,16,19-trioxo-2,17,18-trioxa-5,8,11,14-tetraza-1λ3-lutetatricyclo[9.6.3.25,14]docosan-8-yl)acetyl]amino]pentyl]pyrazol-4-yl]amino]-9-methyl-purin-2-yl]pyrrolidin-3-yl]prop-2-enamide], the Kd at EGFR (WT) is 2 to 100 nM. In addition, on EGFR (L858R, T790M), the Kd is less than 1 nM and the “Binding Affinity ratio of WT/DM” value is on record as “A (4 < A ≤ 25)”.

On to `C=CC(=O)N[C@@H]1CN(c2nc(Nc3cn(CCCCCCCNC(=O)CN4CCN(CC(=O)O)CCN(CC(=O)O)CCN(CC(=O)O)CC4)nc3OC)c3ncn(C)c3n2)C[C@H]1F` [Compound 003, 2-[4,7-bis(carboxymethyl)-10-[2-[7-[4-[[2-[(3R,4R)-3-fluoro-4-(prop-2-enoylamino)pyrrolidin-1-yl]-9-methyl-purin-6-yl]amino]-3-methoxy-pyrazol-1-yl]heptylamino]-2-oxo-ethyl]-1,4,7,10-tetrazacyclododec-1-yl]acetic acid], for which the Kd at EGFR (WT) (setting [1]) was 2 to 100 nM; at EGFR (L858R, T790M) (setting [2]) it was less than 1 nM. Further, the “Binding Affinity ratio of WT/DM” value on EGFR (L858R, T790M) is “A (4 < A ≤ 25)”.

With `C=CC(=O)N[C@@H]1CN(c2nc(Nc3cn(CCCCCCCNC(=O)CN4CCN5CCN6CCN(CC4)CC(=O)[O][Lu]([O]C(=O)C5)[O]C(=O)C6)nc3OC)c3ncn(C)c3n2)C[C@H]1F` [Compound 003-Lu, N-[(3R,4R)-4-fluoro-1-[6-[[3-methoxy-1-[7-[[2-(3,16,19-trioxo-2,17,18-trioxa-5,8,11,14-tetraza-1λ3-lutetatricyclo[9.6.3.25,14]docosan-8-yl)acetyl]amino]heptyl]pyrazol-4-yl]amino]-9-methyl-purin-2-yl]pyrrolidin-3-yl]prop-2-enamide], the Kd is 2 to 100 nM on EGFR (WT) and less than 1 nM at EGFR (L858R, T790M). Moreover, the “Binding Affinity ratio of WT/DM” value at EGFR (L858R, T790M) is recorded as “A (4 < A ≤ 25)”.

For `C=CC(=O)N[C@@H]1CN(c2nc(Nc3cn(CCCCCNC(=O)CN4CCN(CC(=O)O)CCN(CC(=O)O)CCN(CC(=O)O)CC4)nc3OC)c3ncn(C(C)(C)C)c3n2)C[C@H]1F` [Compound 004, 2-[4-[2-[5-[4-[[9-tert-butyl-2-[(3R,4R)-3-fluoro-4-(prop-2-enoylamino)pyrrolidin-1-yl]purin-6-yl]amino]-3-methoxy-pyrazol-1-yl]pentylamino]-2-oxo-ethyl]-7,10-bis(carboxymethyl)-1,4,7,10-tetrazacyclododec-1-yl]acetic acid], the Kd is 100 to 1000 nM at EGFR (WT) (setting [1]) and 1 to 25 nM at EGFR (L858R, T790M) (setting [2]). Also, at EGFR (L858R, T790M), the “Binding Affinity ratio of WT/DM” value is listed as “B (25 < B ≤ 100)”.

For `C=CC(=O)N[C@@H]1CN(c2nc(Nc3cn(CCCCCNC(=O)CN4CCN5CCN6CCN(CC4)CC(=O)[O][Lu]([O]C(=O)C5)[O]C(=O)C6)nc3OC)c3ncn(C(C)(C)C)c3n2)C[C@H]1F` [Compound 004-Lu, N-[(3R,4R)-1-[9-tert-butyl-6-[[3-methoxy-1-[5-[[2-(3,16,19-trioxo-2,17,18-trioxa-5,8,11,14-tetraza-1λ3-lutetatricyclo[9.6.3.25,14]docosan-8-yl)acetyl]amino]pentyl]pyrazol-4yl]amino]purin-2-yl]-4-fluoro-pyrrolidin-3-yl]prop-2-enamide], the Kd was 2 to 100 nM on EGFR (WT) and less than 1 nM at EGFR (L858R, T790M). Besides, the “Binding Affinity ratio of WT/DM” value on EGFR (L858R, T790M) is on record as “B (25 < B ≤ 100)”.

With `C=CC(=O)N[C@@H]1CN(c2nc(Nc3cn(CCCCCNC(=O)CN4CCN(CC(=O)O)CCN(CC(=O)O)CCN(CC(=O)O)CC4)nc3CC)c3ncn(C(C)(C)C)c3n2)C[C@H]1F` [Compound 005, 2-[4-[2-[5-[4-[[9-tert-butyl-2-[(3R,4R)-3-fluoro-4-(prop-2-enoylamino)pyrrolidin-1-yl]purin-6-yl]amino]-3-ethyl-pyrazol-1-yl]pentylamino]-2-oxo-ethyl]-7,10-bis(carboxymethyl)-1,4,7,10-tetrazacyclododec-1-yl]acetic acid], the Kd fell in the range of 1000 to 2500 nM on EGFR (WT) (setting [1]) and 1 to 25 nM at EGFR (L858R, T790M) (setting [2]). In addition, the “Binding Affinity ratio of WT/DM” value on EGFR (L858R, T790M) is listed as “C (100 < C ≤ 1000)”.

For the molecule `C=CC(=O)N[C@@H]1CN(c2nc(Nc3cn(CCCCCNC(=O)CN4CCN5CCN6CCN(CC4)CC(=O)[O][Lu]([O]C(=O)C5)[O]C(=O)C6)nc3CC)c3ncn(C(C)(C)C)c3n2)C[C@H]1F` [Compound 005-Lu, N-[(3R,4R)-1-[9-tert-butyl-6-[[3-ethyl-1-[5-[[2-(3,16,19-trioxo-2,17,18-trioxa-5,8,11,14-tetraza-1λ3-lutetatricyclo[9.6.3.25,14]docosan-8-yl)acetyl]amino]pentyl]pyrazol-4-yl]amino]purin-2-yl]-4-fluoro-pyrrolidin-3-yl]prop-2-enamide], the Kd at EGFR (WT) lay in the range of 1000 to 2500 nM. Besides, on EGFR (L858R, T790M), the Kd is 1 to 25 nM and the “Binding Affinity ratio of WT/DM” value is “C (100 < C ≤ 1000)”.

With `C=CC(=O)N[C@@H]1CN(c2nc(Nc3cn(CCCCCNC(=O)CN4C[C@H](CC)N(CC(=O)O)C[C@H](CC)N(CC(=O)O)C[C@H](CC)N(CC(=O)O)C[C@@H]4CC)nc3CC)c3ncn(C(C)(C)C)c3n2)C[C@H]1F` [Compound 006, 2,2′,2″-((2S,5S,8S,11S)-10-(2-((5-(4-((2-((3R,4R)-3-acrylamido-4-fluoropyrrolidin-1-yl)-9-(tert-butyl)-9H-purin-6-yl)amino)-3-ethyl-1H-pyrazol-1-yl)pentyl)amino)-2-oxoethyl)-2,5,8,11-tetraethyl-1,4,7,10-tetraazacyclododecane-1,4,7-triyl)triacetic acid], the Kd on EGFR (WT) (setting [1]) lay within 1000 to 2500 nM; on EGFR (L858R, T790M) (setting [2]), 1 to 25 nM. In addition, the “Binding Affinity ratio of WT/DM” value at EGFR (L858R, T790M) is “B (25 < B ≤ 100)”.

Regarding `C=CC(=O)N1C[C@H](COc2nc(Nc3cnn(CCCCCNC(=O)CN4CCN(CC(=O)O)CCN(CC(=O)O)CCN(CC(=O)O)CC4)c3)nc3[nH]cc(Cl)c23)[C@@H](OC)C1` [Compound 007, 2,2′,2″-(10-(2-((5-(4-((4-(((3R,4R)-1-acryloyl-4-methoxypyrrolidin-3yl)methoxy)-5-chloro-7H-pyrrolo[2,3-d]pyrimidin-2-yl)amino)-1H-pyrazol-1-yl)pentyl)amino)-2-oxoethyl)-1,4,7,10-tetraazacyclododecane-1,4,7-triyl)triacetic acid], the Kd lay within 100 to 1000 nM at EGFR (WT) (setting [1]) and 1 to 25 nM on EGFR (L858R, T790M) (setting [2]). Moreover, the “Binding Affinity ratio of WT/DM” value on EGFR (L858R, T790M) is given as “C (100 < C ≤ 1000)”.

The values above are taken from patent US20240342318A1, “CONJUGATES COMPRISING COVALENT BINDERS FOR TARGETING INTRACELLULAR PROTEINS” (RayzeBio, Inc., priority 2021, published 2024).
